Assay results: patent US9199943B2, “2-(poly-substituted aryl)-6-amino-5-halo-4-pyrimidinecarboxylic acids and their use as herbicides” (Dow AgroSciences, LLC., priority 2006, dated 2015)

Legend:
Assay type in all cases: in vivo
VERPE = Veronica persica = assay: Postemergence herbicidal activity in cereal crops, Veronica persica; details: post-emergence, 480 h, post-emergent, after 20-22 days; for pest or weed control at 17.5 g/ha: 17.5 g ai/ha; for pest or weed control at 70 g/ha: 70 g ai/ha; for pest or weed control at 35 g/ha: 35 g ai/ha
Procedure: Seeds of the desired test plant species were planted in Sun Gro MetroMix® 306 planting mixture, which typically has a pH of 6.0 to 6.8 and an organic matter content of about 30 percent, in plastic pots with a surface area of 103.2 square centimeters. When required to ensure good germination and healthy plants, a fungicide treatment and/or other chemical or physical treatment was applied. The plants were grown for 7-36 days in a greenhouse with an approximate 14 hour photoperiod which was maintained at about 18° C. during the day and 17° C. during the night. Nutrients and water were added on a regular basis and supplemental lighting was provided with overhead metal halide 1000-Watt lamps as necessary. The plants were employed for testing when they reached the second or third true leaf stage.
A weighed amount, determined by the highest rate to be tested, of each test compound was placed in a 25 mL glass vial and was dissolved in 8 mL of a 97:3 v/v mixture of acetone and DMSO to obtain concentrated stock solutions. […] The concentrated stock solutions obtained were diluted with 16 mL of an aqueous mixture containing acetone, water, isopropyl alcohol, DMSO, Agri-dex crop oil concentrate, and Triton X-77 surfactant in a 64.7:26.0:6.7:2.0:0.7:0.01 v/v ratio to obtain spray solutions containing the highest application rates. Additional application rates were obtained by serial dilution of 12 mL of the high rate solution into a solution containing 4 mL of 97:3 v/v mixture of acetone and DMSO and 8 mL of an aqueous mixture containing acetone, water, isopropyl alcohol, DMSO, Agri-dex crop oil concentrate, and Triton X-77 surfactant in a 48.5:39.0:10.0:1.5:1.0:0.02 v/v ratio to obtain ½×, ¼×, ⅛× and 1/16× rates of the high rate. Compound requirements are based upon a 12 mL application volume at a rate of 187 L/ha. Formulated compounds were applied to the plant material with an overhead Mandel track sprayer equipped with a 8002E nozzles calibrated to deliver 187 L/ha over an application area of 0.503 square meters at a spray height of 18 inches (43 cm) above average plant canopy height. Control plants were sprayed in the same manner with the blank.
(§1) The treated plants and control plants were placed in a greenhouse as described above and watered by sub-irrigation to prevent wash-off of the test compounds. After 20-22 days, the condition of the test plants as compared with that of the untreated plants was determined visually and scored on a scale of 0 to 100 percent where 0 corresponds to no injury and 100 corresponds to complete kill.

[1] = tested on: CHEAL = lambsquarter (Chenopodium album); assay: General postemergence herbicidal activity, lambsquarter; details: Chenopodium album, post-emergence, 336 h; post-emergent, 140 g ai/ha, visual score after 14 days (0 no injury, 100 complete kill)
Procedure: (§2) Seeds or nutlets of the desired test plant species were planted in Sun Gro MetroMix® 306 planting mixture, which typically has a pH of 6.0 to 6.8 and an organic matter content of about 30 percent, in plastic pots with a surface area of 64 square centimeters. When required to ensure good germination and healthy plants, a fungicide treatment and/or other chemical or physical treatment was applied. The plants were grown for 7-21 days in a greenhouse with an approximate 15 hour photoperiod which was maintained at about 23-29° C. during the day and 22-28° C. during the night. Nutrients and water were added on a regular basis and supplemental lighting was provided with overhead metal halide 1000-Watt lamps as necessary. The plants were employed for testing when they reached the first or second true leaf stage.
(§3) A weighed amount, determined by the highest rate to be tested, of each test compound was placed in a 25 mL glass vial and was dissolved in 4 mL of a 97:3 v/v (volume/volume) mixture of acetone and dimethyl sulfoxide (DMSO) to obtain concentrated stock solutions. […] The concentrated stock solutions obtained were diluted with 20 mL of an aqueous mixture containing acetone, water, isopropyl alcohol, DMSO, Atplus 411F crop oil concentrate, and Triton X-155 surfactant in a 48.5:39:10:1.5:1.0:0.02 v/v ratio to obtain spray solutions containing the highest application rates. Additional application rates were obtained by serial dilution of 12 mL of the high rate solution into a solution containing 2 mL of 97:3 v/v (volume/volume) mixture of acetone and dimethyl sulfoxide (DMSO) and 10 mL of an aqueous mixture containing acetone, water, isopropyl alcohol, DMSO, Atplus 411F crop oil concentrate, and Triton X-155 surfactant in a 48.5:39:10:1.5:1.0:0.02 v/v ratio to obtain ½×, ¼×, ⅛× and 1/16× rates of the high rate. Compound requirements are based upon a 12 mL application volume at a rate of 187 L/ha. Formulated compounds were applied to the plant material with an overhead Mandel track sprayer equipped with a 8002E nozzles calibrated to deliver 187 L/ha over an application area of 0.503 square meters at a spray height of 18 inches (43 cm) above the average plant canopy height. Control plants were sprayed in the same manner with the solvent blank.
as §1, with “14” for “20-22”
(§4) By applying the well-accepted probit analysis as described by J. Berkson in Journal of the […], 48, 565 (1953) and by D. Finney in “Probit Analysis” Cambridge University Press (1952), the above data can be used to calculate GR50 and GR80 values, which are defined as growth reduction factors that correspond to the effective dose of herbicide required to kill or control 50 percent or 80 percent, respectively, of a target plant.

[2] = tested on: ABUTH = velvetleaf (Abutilon theophrasti); assay: General postemergence herbicidal activity, velvetleaf; details: Abutilon theophrasti, post-emergence, 336 h; post-emergent, 140 g ai/ha, visual score after 14 days (0 no injury, 100 complete kill)
Procedure: as §2, §3
as §1, with “14” for “20-22”
as §4

COC(=O)c1nc(-c2ccc(Cl)c(OC)c2F)nc(N)c1Br [Compound 13, 6-amino-5-bromo-2-(4-chloro-2-fluoro-3-methoxyphenyl)-pyrimidine-4-carboxylic acid methyl ester]
pest or weed control at 17.5 g/ha (VERPE = Veronica persica): 95% | pest or weed control at 140 g/ha [1]: 100% | pest or weed control at 140 g/ha [2]: 100%

COC(=O)c1nc(-c2ccc3c(c2F)OCO3)nc(N)c1Cl [Compound 9, 6-Amino-5-chloro-2-(4-fluorobenzo[1,3]dioxol-5-yl)pyrimidine-4-carboxylic acid methyl ester]
pest or weed control at 70 g/ha (VERPE = Veronica persica): 30% | pest or weed control at 140 g/ha [1]: 90% | pest or weed control at 140 g/ha [2]: 95%

COC(=O)c1nc(-c2c(F)cc(Cl)c(OC)c2F)nc(N)c1Cl [Compound 2, 6-amino-5-chloro-2-(4-chloro-2,6-difluoro-3-methoxy-phenyl)pyrimidine-4-carboxylic acid methyl ester]
pest or weed control at 35 g/ha (VERPE = Veronica persica): 50% | pest or weed control at 140 g/ha [1]: 100% | pest or weed control at 140 g/ha [2]: 90%

COC(=O)c1nc(-c2ccc(Cl)c(C(F)F)c2F)nc(N)c1Cl [Compound 7, 6-Amino-5-chloro-2-(4-chloro-3-difluoromethyl-2-fluorophenyl)pyrimidine-4-carboxylic acid methyl ester]
pest or weed control at 17.5 g/ha (VERPE = Veronica persica): 95% | pest or weed control at 140 g/ha [1]: 100% | pest or weed control at 140 g/ha [2]: 80%

CCOc1c(Cl)ccc(-c2nc(N)c(Cl)c(C(=O)OC)n2)c1F [Compound 1, 6-amino-5-chloro-2-(4-chloro-3-ethoxy-2-fluorophenyl)-pyrimidine-4-carboxylic acid methyl ester]
pest or weed control at 35 g/ha (VERPE = Veronica persica): 20% | pest or weed control at 140 g/ha [1]: 100% | pest or weed control at 140 g/ha [2]: 100%

COC(=O)c1nc(-c2ccc(Cl)c(N(C)C)c2F)nc(N)c1Cl [Compound 8, 6-Amino-5-chloro-2-(4-chloro-3-dimethylamino-2-fluorophenyl)pyrimidine-4-carboxylic acid methyl ester]
pest or weed control at 35 g/ha (VERPE = Veronica persica): 95% | pest or weed control at 140 g/ha [1]: 100% | pest or weed control at 140 g/ha [2]: 100%

COC(=O)c1nc(-c2ccc(Cl)c(OCC(F)F)c2F)nc(N)c1Cl [Compound 10, 6-Amino-5-chloro-2-[4-chloro-3-(2,2-difluoroethoxy)-2-fluorophenyl]-pyrimidine-4-carboxylic acid methyl ester]
pest or weed control at 70 g/ha (VERPE = Veronica persica): 20% | pest or weed control at 140 g/ha [1]: 85% | pest or weed control at 140 g/ha [2]: 75%

COC(=O)c1nc(-c2ccc(Cl)c(OC)c2F)nc(N)c1Cl [Compound 3, 6-amino-5-chloro-2-(4-chloro-2-fluoro-3-methoxyphenyl)-pyrimidine-4-carboxylic acid methyl ester]
pest or weed control at 17.5 g/ha (VERPE = Veronica persica): 99% | pest or weed control at 140 g/ha [1]: 100% | pest or weed control at 140 g/ha [2]: 100%

COC(=O)c1nc(-c2ccc(Cl)c(OC)c2Cl)nc(N)c1Cl [Compound 6, 6-Amino-5-chloro-2-(2,4-dichloro-3-methoxyphenyl)pyrimidine-4-carboxylic acid methyl ester]
pest or weed control at 70 g/ha (VERPE = Veronica persica): 99% | pest or weed control at 140 g/ha [1]: 100% | pest or weed control at 140 g/ha [2]: 95%
